Experimental data: PubChem BioAssay AID256 (DTP/NCI, 2004)
Values joined by “and” are separate entries in the source; they are usually repeats but may differ in a detail not shown here. Equal values may be shown once. Inconclusive results and toxic doses are left out.

System: CD2F1 mice, L1210 leukemia ip, survival T/C
Assay: NCI In Vivo Anticancer Drug Screen. Data for tumor model L1210 Leukemia (intraperitoneal) in CD2F1 (CDF1) mice
Details: higher = longer survival
Summary of the method: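 Implant tumor; dose compound or vehicle; measure endpoint in both groups; report treated divided by control.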

[1] = endpoint: mean survival time, dose: 50.0 mg/kg/injection, schedule: Q01DX009 (ip), vehicle: saline
[2] = endpoint: mean survival time, dose: 100.0 mg/kg/injection, schedule: Q01DX009 (ip), vehicle: saline
[3] = endpoint: mean survival time, dose: 200.0 mg/kg/injection, schedule: Q01DX009 (ip), vehicle: saline

Nc1nc(F)nc2c1ncn2C1OC(COP(=O)(O)O)C(O)C1O (stereo unspecified)
T/C (endpoint: mean survival time, dose: 6.25 mg/kg/injection, schedule: Q01DX009 (ip), vehicle: saline): 98 % of control
T/C (endpoint: mean survival time, dose: 12.5 mg/kg/injection, schedule: Q01DX009 (ip), vehicle: saline): 104 % of control
T/C (endpoint: mean survival time, dose: 25.0 mg/kg/injection, schedule: Q01DX009 (ip), vehicle: saline): 118 % of control
T/C [1]: 114 % of control
T/C (endpoint: mean survival time, dose: 60.0 mg/kg/injection, schedule: Q01DX009 (ip), vehicle: saline): 124 % of control
T/C (endpoint: mean survival time, dose: 88.98 mg/kg/injection, schedule: Q01DX009 (ip), vehicle: saline with Tween-80): 174 % of control
T/C (endpoint: mean survival time, dose: 90.0 mg/kg/injection, schedule: Q01DX009 (ip), vehicle: saline): 182 % of control
T/C [2]: 171 % of control
T/C (endpoint: mean survival time, dose: 133.0 mg/kg/injection, schedule: Q01DX009 (ip), vehicle: saline): 183 % of control
T/C (endpoint: mean survival time, dose: 133.4 mg/kg/injection, schedule: Q01DX009 (ip), vehicle: saline with Tween-80): 244 % of control
T/C (endpoint: mean survival time, dose: 133.4 mg/kg/injection, schedule: Q01DX009 (ip), vehicle: saline): 180 % of control
T/C (endpoint: mean survival time, dose: 135.0 mg/kg/injection, schedule: Q01DX009 (ip), vehicle: saline): 288 % of control and 156 % of control
T/C (endpoint: mean survival time, dose: 200.0 mg/kg/injection, schedule: Q01DX009 (ip), vehicle: saline with Tween-80): 100 % of control
T/C [3]: 231 % of control [middle of 4 runs]
T/C (endpoint: mean survival time, dose: 219.0 mg/kg/injection, schedule: Q01DX009 (ip), vehicle: saline): 362 % of control
T/C (endpoint: mean survival time, dose: 292.0 mg/kg/injection, schedule: Q01DX009 (ip), vehicle: saline): 98 % of control
T/C (endpoint: median survival time, dose: 32.0 mg/kg/injection, schedule: Q01DX009 (ip), vehicle: saline): 114 % of control and 112 % of control
T/C (endpoint: median survival time, dose: 40.0 mg/kg/injection, schedule: Q03HX024 (ip), vehicle: sodium bicarbonate): 167 % of control
T/C (endpoint: median survival time, dose: 47.0 mg/kg/injection, schedule: Q01DX009 (ip), vehicle: saline): 114 % of control and 111 % of control
T/C (endpoint: median survival time, dose: 56.0 mg/kg/injection, schedule: Q03HX024 (ip), vehicle: sodium bicarbonate): 193 % of control
T/C (endpoint: median survival time, dose: 85.0 mg/kg/injection, schedule: Q03HX024 (ip), vehicle: sodium bicarbonate): 168 % of control
T/C (endpoint: median survival time, dose: 90.0 mg/kg/injection, schedule: Q01DX009 (ip), vehicle: saline): 169 % of control and 185 % of control
T/C (endpoint: median survival time, dose: 98.8 mg/kg/injection, schedule: Q01DX009 (ip), vehicle: saline): 178 % of control
T/C (endpoint: median survival time, dose: 100.0 mg/kg/injection, schedule: Q01DX001 (oral), vehicle: sodium bicarbonate): 101 % of control
T/C (endpoint: median survival time, dose: 100.0 mg/kg/injection, schedule: Q01DX005 (oral), vehicle: sodium bicarbonate): 111 % of control
T/C (endpoint: median survival time, dose: 105.0 mg/kg/injection, schedule: Q01DX009 (ip), vehicle: saline): 172 % of control
T/C (endpoint: median survival time, dose: 110.0 mg/kg/injection, schedule: Q03HX008 (ip), vehicle: sodium bicarbonate): 163 % of control
T/C (endpoint: median survival time, dose: 111.0 mg/kg/injection, schedule: Q01DX009 (ip), vehicle: saline): 159 % of control
T/C (endpoint: median survival time, dose: 118.0 mg/kg/injection, schedule: Q01DX005 (ip), vehicle: sodium bicarbonate): 175 % of control
T/C (endpoint: median survival time, dose: 125.0 mg/kg/injection, schedule: Q03HX024 (ip), vehicle: sodium bicarbonate): 625 % of control
T/C (endpoint: median survival time, dose: 134.0 mg/kg/injection, schedule: Q01DX009 (ip), vehicle: saline): 196 % of control and 202 % of control
T/C (endpoint: median survival time, dose: 148.0 mg/kg/injection, schedule: Q01DX009 (ip), vehicle: saline): 235 % of control
T/C (endpoint: median survival time, dose: 157.0 mg/kg/injection, schedule: Q01DX009 (ip), vehicle: saline): 182 % of control and 283 % of control
T/C (endpoint: median survival time, dose: 167.0 mg/kg/injection, schedule: Q01DX009 (ip), vehicle: saline): 207 % of control
T/C (endpoint: median survival time, dose: 170.0 mg/kg/injection, schedule: Q03HX008 (ip), vehicle: sodium bicarbonate): 190 % of control
T/C (endpoint: median survival time, dose: 175.0 mg/kg/injection, schedule: Q01DX009 (ip), vehicle: saline): 207 % of control
T/C (endpoint: median survival time, dose: 177.0 mg/kg/injection, schedule: Q01DX005 (ip), vehicle: sodium bicarbonate): 216 % of control
T/C (endpoint: median survival time, dose: 177.0 mg/kg/injection, schedule: Q01DX005 (iv), vehicle: sodium bicarbonate): 171 % of control
T/C (endpoint: median survival time, dose: 200.0 mg/kg/injection, schedule: Q01DX001 (oral), vehicle: sodium bicarbonate): 97 % of control
T/C (endpoint: median survival time, dose: 200.0 mg/kg/injection, schedule: Q01DX009 (ip), vehicle: saline): 219 % of control and 198 % of control
T/C (endpoint: median survival time, dose: 200.0 mg/kg/injection, schedule: Q04DX003 (ip), vehicle: sodium bicarbonate): 152 % of control
T/C (endpoint: median survival time, dose: 222.0 mg/kg/injection, schedule: Q01DX009 (ip), vehicle: saline): 297 % of control
T/C (endpoint: median survival time, dose: 225.0 mg/kg/injection, schedule: Q01DX009 (ip), vehicle: saline): 304 % of control
T/C (endpoint: median survival time, dose: 234.0 mg/kg/injection, schedule: Q01DX009 (ip), vehicle: saline): 296 % of control
T/C (endpoint: median survival time, dose: 250.0 mg/kg/injection, schedule: Q01DX009 (ip), vehicle: saline): 197 % of control and 284 % of control
T/C (endpoint: median survival time, dose: 250.0 mg/kg/injection, schedule: Q03HX008 (ip), vehicle: sodium bicarbonate): 198 % of control
T/C (endpoint: median survival time, dose: 266.0 mg/kg/injection, schedule: Q01DX001 (ip), vehicle: sodium bicarbonate): 115 % of control
T/C (endpoint: median survival time, dose: 266.0 mg/kg/injection, schedule: Q01DX005 (ip), vehicle: sodium bicarbonate): 222 % of control
T/C (endpoint: median survival time, dose: 266.0 mg/kg/injection, schedule: Q01DX005 (iv), vehicle: sodium bicarbonate): 195 % of control
T/C (endpoint: median survival time, dose: 300.0 mg/kg/injection, schedule: Q04DX003 (ip), vehicle: sodium bicarbonate): 166 % of control
T/C (endpoint: median survival time, dose: 375.0 mg/kg/injection, schedule: Q01DX009 (ip), vehicle: saline): 151 % of control
T/C (endpoint: median survival time, dose: 400.0 mg/kg/injection, schedule: Q01DX001 (iv), vehicle: sodium bicarbonate): 120 % of control
T/C (endpoint: median survival time, dose: 400.0 mg/kg/injection, schedule: Q01DX001 (oral), vehicle: sodium bicarbonate): 100 % of control
T/C (endpoint: median survival time, dose: 400.0 mg/kg/injection, schedule: Q01DX005 (iv), vehicle: sodium bicarbonate): 91 % of control
T/C (endpoint: median survival time, dose: 450.0 mg/kg/injection, schedule: Q04DX003 (ip), vehicle: sodium bicarbonate): 212 % of control
T/C (endpoint: median survival time, dose: 500.0 mg/kg/injection, schedule: Q01DX009 (ip), vehicle: saline): 94 % of control
T/C (endpoint: median survival time, dose: 670.0 mg/kg/injection, schedule: Q04DX003 (ip), vehicle: sodium bicarbonate): 222 % of control
T/C (endpoint: median survival time, dose: 800.0 mg/kg/injection, schedule: Q01DX001 (oral), vehicle: sodium bicarbonate): 103 % of control
T/C (endpoint: median survival time, dose: 800.0 mg/kg/injection, schedule: Q01DX005 (oral), vehicle: sodium bicarbonate): 150 % of control
T/C (endpoint: median survival time, dose: 1600.0 mg/kg/injection, schedule: Q01DX001 (oral), vehicle: sodium bicarbonate): 113 % of control
T/C (endpoint: median survival time, dose: 1600.0 mg/kg/injection, schedule: Q01DX005 (oral), vehicle: sodium bicarbonate): 175 % of control

CCCCCCC[CH2][Sn]1([CH2]CCCCCCC)[O]CC2OC(n3cc(C)c(=O)[nH]c3=O)CC2[O]1 (stereo unspecified)
T/C (endpoint: mean survival time, dose: 12.5 mg/kg/injection, schedule: Q01DX005 (ip), vehicle: other): 94 % of control
T/C (endpoint: mean survival time, dose: 25.0 mg/kg/injection, schedule: Q01DX005 (ip), vehicle: other): 100 % of control
T/C (endpoint: mean survival time, dose: 50.0 mg/kg/injection, schedule: Q01DX005 (ip), vehicle: other): 114 % of control

CC(C)c1cc(C(C)(C)C)c(O)c(C(C)(C)C)c1
T/C (endpoint: mean survival time, dose: 25.0 mg/kg/injection, schedule: Q01DX009 (ip), vehicle: Klucel (hydroxypropylcellulose) (HPC)): 94 % of control
T/C (endpoint: mean survival time, dose: 50.0 mg/kg/injection, schedule: Q01DX009 (ip), vehicle: Klucel (hydroxypropylcellulose) (HPC)): 102 % of control
T/C (endpoint: mean survival time, dose: 100.0 mg/kg/injection, schedule: Q01DX009 (ip), vehicle: Klucel (hydroxypropylcellulose) (HPC)): 98 % of control

CCCC(C(CC)CN(C)C)N(C)C (stereo unspecified)
T/C (endpoint: mean survival time, dose: 3.12 mg/kg/injection, schedule: Q04DX002 (ip), vehicle: saline with Tween-80): 113 % of control
T/C (endpoint: mean survival time, dose: 6.25 mg/kg/injection, schedule: Q04DX002 (ip), vehicle: saline with Tween-80): 106 % of control
T/C (endpoint: mean survival time, dose: 12.5 mg/kg/injection, schedule: Q04DX002 (ip), vehicle: saline with Tween-80): 107 % of control
T/C (endpoint: mean survival time, dose: 25.0 mg/kg/injection, schedule: Q01DX001 (ip), vehicle: saline with Tween-80): 120 % of control
T/C (endpoint: mean survival time, dose: 25.0 mg/kg/injection, schedule: Q04DX002 (ip), vehicle: saline with Tween-80): 103 % of control
T/C (endpoint: mean survival time, dose: 50.0 mg/kg/injection, schedule: Q01DX001 (ip), vehicle: saline with Tween-80): 100 % of control
T/C (endpoint: mean survival time, dose: 100.0 mg/kg/injection, schedule: Q01DX001 (ip), vehicle: saline with Tween-80): 100 % of control

CC12CCCCC1CCC(Br)C2=O (stereo unspecified)
T/C (endpoint: mean survival time, dose: 100.0 mg/kg/injection, schedule: Q04DX003 (ip), vehicle: saline with Tween-80): 102 % of control
T/C (endpoint: mean survival time, dose: 200.0 mg/kg/injection, schedule: Q04DX003 (ip), vehicle: saline with Tween-80): 100 % of control
T/C (endpoint: mean survival time, dose: 400.0 mg/kg/injection, schedule: Q04DX003 (ip), vehicle: saline with Tween-80): 102 % of control

COc1ccc(/C(C#N)=C2\OC(=O)c3ccccc32)cc1OC
T/C [1]: 93 % of control
T/C [2]: 94 % of control
T/C [3]: 94 % of control
T/C (endpoint: mean survival time, dose: 400.0 mg/kg/injection, schedule: Q01DX009 (ip), vehicle: saline): 94 % of control
